This is an account of results in patent US9006256B2, “Antitumor agent for thyroid cancer” (Eisai R&D Management Co., Ltd., priority 2006, dated 2015).

Assay [1] concerns human medullary thyroid carcinoma cell line (TT). To be noted: Journal of the National Cancer Institute, 98, 326-334, 2006; cited from earlier work.
Assay [2] deals with NIH3T3 cells transformed with mutant RET. To be noted: Cancer Research, 15, 7284-7290, 2002; cited from earlier work.
For assay [3] the test system is unchanged. Conditions: Cancer Research, 15, 7284-7290, 2002; cited from earlier work. The source holds these as a separate data set.
Another assay relates to Erk1/2. Nature of the assay: Erk1/2 phosphorylation in human medullary thyroid carcinoma cell line (TT), western blotting. In kind it is cell-based. To be noted: TT cells, 1 hour treatment. Here is the method:
Human medullary thyroid carcinoma cell line (TT, purchased from ATCC) was suspended in RPMI1640 medium containing 15% FBS (purchased from Sigma). TT is a cell expressing RET where cysteine at codon 634 in the wild-type RET amino acid sequence is mutated with tryptophan (Biochemical and Biophysical Research Communications, 207, 1022-1028, 1995). Two mL of this cell suspension per well (4×10^5 cells/mL) was added to 6-well cell culture plate (purchased from FALCON), and cultured in a 5% CO2 incubator (37° C.) overnight. After cultivation, supernatant was removed from each well and 1.8 mL of RPMI1640 medium containing 15% FBS was added. […] Supernatant was removed from each well, which was then washed with 400 μL of PBS, and added with 100 μL of solubilizing buffer (50 mM Hepes (pH7.4), 150 mM NaCl, 10% (v/v) glycerol, 1% Triton X-100, 1.5 mM MgCl2, 1 mM EDTA (pH 8.0), 100 mM NaF, 1 mM PMSF, 10 μg/mL, Aprotinin, 50 μg/mL Leupeptin, 1 μg/mL Pepstatin A and 1 mM Na3VO4). Cells in this solution were harvested with a scraper and treated at 15,000 rpm and 4° C. for 15 minutes. SDS buffer was added to the supernatant and subjected to treatment at 94° C. for 5 minutes to solubilize the protein, which was then prepared to 20 μg/10 μL as a cell extract. […]
A general note: A western blot detects proteins with antibodies after separation by electrophoresis.

The subject of assay [4] is human medullary thyroid carcinoma cell line (TT). Nature of the assay: Antitumor effect in model for subcutaneous transplantation of human medullary thyroid carcinoma cell line (TT). It counts as in vivo, nude mouse. To be noted: oral, 10, 30 or 100 mg/kg, once a day, four weeks. The protocol: (§1) Human medullary thyroid carcinoma cell line (TT, purchased from ATCC) was cultured at 37° C. in RPMI1640 (containing 15% FBS) in a 5% carbon dioxide incubator to about 80% confluence, and cells were harvested with trypsin-EDTA according to a general method. The cells were suspended in a phosphate buffer to prepare 1×10^8 cells/mL suspension. 0.1 mL each of the resulting cell suspension was subcutaneously transplanted to a nude mouse at the side of its body (purchased from Charles River).
The major and minor axes of tumors were measured with Digimatic caliper (Mitsutoyo), and tumor volumes were calculated according to the following formula. Tumor Volume (TV)=Major axis of tumor (mm)×(Minor axis of tumor)^2 (mm^2)/2

A further assay has as its target T1, RET (Homo sapiens, UniProt P07949, C634W).
T1 construct: from tissue; host or cells: Subcutaneous TT tumour resected from nude mice (TT from ATCC, mice from Charles River)
Nature of the assay: RET phosphorylation in tumor tissue of model for subcutaneous transplantation of TT. It counts as in vivo, nude mouse. To be noted: oral, 10, 30 or 100 mg/kg; tumors resected 2, 8, 12 or 24 hours after administration. Here is the method: as §1
Tumors were resected 2, 8, 12 or 24 hours after administration, to which solubilizing buffer (50 mM Hepes (pH7.4), 150 mM NaCl, 10% (v/v) glycerol, 1% Triton X-100, 1.5 mM MgCl2, 1 mM EDTA (pH 8.0), 100 mM NaF, 1 mM PMSF, 10 μg/mL Aprotinin, 50 μg/mL Leupeptin, 1 μg/mL Pepstatin A, 1 mM Na3VO4), 25 mM β-glycerophosphate, and phosphatase inhibitor cocktail II (SIGMA)) were added and homogenized. Treatment at 15,000 rpm and 4° C. for 15 minutes and addition of SDS buffer to the supernatant were followed by treatment at 94° C. for 5 minutes to solubilize protein to 20 μg/10 μL to prepare cell extract. The cell extract was subjected to electrophoresis and immunoblotting in the same manner as in Example 2.

Assay [5] concerns human medullary thyroid carcinoma cell line (TT). Nature of the assay: Cell growth of human medullary thyroid carcinoma cell line (TT). It counts as cell-based. Conditions: 240 h, TT cells, 10 days culture, read-out: inhibitory activity against cell growth (IC50). Here is the method: Human medullary thyroid carcinoma cell line (TT, purchased from ATCC) was suspended in RPMI1640 medium containing 15% FBS (purchased from Sigma). 0.1 mL per well of this cell suspension (3×10^4 cells/mL) was added to 96-well cell culture plate (purchased from NUNC), and cultured in a 5% CO2 incubator (37° C.) overnight. […] After cultivation, 10 μL of […] (purchased from DOJINDO) was added to each well, treated in 5% CO2 incubator (37° C.) for color development and absorbance of each well was determined with plate reader MTP-500 (Corona Electric) at measurement wavelength of 415 nm and reference wavelength of 660 nm. Percentage (%) of the absorbance of each well with the test substance was determined compared to the absorbance of well without the test substance, based on which concentration of the test substance required for inhibiting cell growth for 50% (IC50) was calculated.

T1 sequence (P07949 29-1114 C634W): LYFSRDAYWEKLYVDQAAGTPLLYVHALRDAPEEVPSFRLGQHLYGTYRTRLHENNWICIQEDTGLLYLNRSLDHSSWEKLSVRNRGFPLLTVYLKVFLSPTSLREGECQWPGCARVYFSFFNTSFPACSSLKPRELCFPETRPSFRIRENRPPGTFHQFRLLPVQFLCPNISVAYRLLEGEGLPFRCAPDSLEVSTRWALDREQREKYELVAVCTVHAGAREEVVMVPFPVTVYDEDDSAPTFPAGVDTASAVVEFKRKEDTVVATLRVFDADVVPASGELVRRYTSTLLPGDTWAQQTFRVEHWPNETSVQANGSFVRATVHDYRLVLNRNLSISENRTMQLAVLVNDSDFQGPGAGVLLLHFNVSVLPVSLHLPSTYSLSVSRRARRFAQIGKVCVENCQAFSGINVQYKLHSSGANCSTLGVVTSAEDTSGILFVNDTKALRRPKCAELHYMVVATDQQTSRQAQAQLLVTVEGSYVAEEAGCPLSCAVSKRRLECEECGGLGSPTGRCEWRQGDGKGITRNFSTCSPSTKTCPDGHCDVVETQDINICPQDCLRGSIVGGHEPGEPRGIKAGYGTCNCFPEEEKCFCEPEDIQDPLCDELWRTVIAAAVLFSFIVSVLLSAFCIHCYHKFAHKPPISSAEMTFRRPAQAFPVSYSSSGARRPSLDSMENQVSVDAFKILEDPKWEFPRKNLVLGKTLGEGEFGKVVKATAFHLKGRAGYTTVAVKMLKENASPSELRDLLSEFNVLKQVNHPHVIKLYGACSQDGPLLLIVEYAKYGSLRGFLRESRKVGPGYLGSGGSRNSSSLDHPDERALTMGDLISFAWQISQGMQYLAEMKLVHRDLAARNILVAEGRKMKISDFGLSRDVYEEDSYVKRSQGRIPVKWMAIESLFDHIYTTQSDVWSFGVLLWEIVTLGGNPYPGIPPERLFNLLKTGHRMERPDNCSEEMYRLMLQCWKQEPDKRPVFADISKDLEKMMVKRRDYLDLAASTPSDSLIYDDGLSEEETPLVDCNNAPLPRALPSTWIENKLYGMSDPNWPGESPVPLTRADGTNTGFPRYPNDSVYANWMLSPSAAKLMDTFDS

With `CNC(=O)c1cc(Oc2ccc(NC(=O)Nc3ccc(Cl)c(C(F)(F)F)c3)cc2)ccn1` [BAY 43-9006], the size of tumor entry in assay [1] is on record as “reduce the size of tumor”.
For the compound `COc1cc2c(Nc3ccc(Br)cc3F)ncnc2cc1OCC1CCN(C)CC1` [ZD6474], in assay [2], the tumor formation entry is on record as “inhibited tumor formation”. Also, the scaffold-independent proliferation entry in assay [3] is “suppress scaffold-independent proliferation”.
Take `COc1cc2nccc(Oc3ccc(NC(=O)NC4CC4)c(Cl)c3)c2cc1C(N)=O` [4-(3-chloro-4-(cyclopropylaminocarbonyl)aminophenoxy)-7-methoxy-6-quinolinecarboxamide]: the “inhibition of Erk1/2 phosphorylation” value with Erk1/2 is reported as “at a concentration similar to that for RET kinase”. Moreover, the “antitumor effect (tumor volume)” value in assay [4] is “dose-dependent antitumor effect”. Besides, the “RET autophosphorylation inhibitory activity in tumor” value at RET is “RET autophosphorylation inhibitory activity at the dose found to exert antitumor effect”. For the same compound, the IC50 in assay [5] is 78 nM.

What is called IC50 is the concentration needed to halve the response being measured.
